Assay results as given in patent publication US7579356B2, “Thia-tetraazaacenaphthylene kinase inhibitors” (Janssen Pharmaceutica NV, priority 2005, dated 2009).

Legend:
Type in all cases: biochemical
EGFR = molecular target: T1, EGFR (Homo sapiens, UniProt P00533); assay: EGFR Kinase Assay; settings: for inhibition at 2 µM: test concentration of 2 μM, compounds without an IC50, read-out: EGFR inhibition in percent; for IC50: GST-EGFR, ATP 5 μM
T1 construct: The intracellular portion of EGFR started at nucleotide 2189 (corresponding to amino acid 667) and ended at the termination codon; made in house; host or cells: Sf9 insect cells (baculovirus)
Outline: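 GST-fused human EGFR intracellular domain (from aa 667), Sf9-expressed, phosphorylated biotinylated polyGluTyr with 5 μM ATP plus γ-33P ATP in Tris pH 8.0, MgCl2, vanadate, 1 mM DTT, 1 h at 30 °C. Streptavidin Flashplate scintillation read; triplicate 16-point half-log series from 200 uM; IC50 from % inhibition vs log concentration, else % inhibition at 2 μM.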

Lyn kinase (human) = molecular target: T2, Lyn kinase (human) (Homo sapiens, UniProt P07948); assay: Lyn Kinase Assay; settings: test concentration of 2 μM
T2 construct: purchased Upstate Biotechnology, Lake Placid, N.Y
Outline: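 Radiometric filter-binding assay with recombinant human Lyn, poly(Glu,Tyr) substrate (0.1 mg/mL final), 5 μM ATP plus γ-33P-ATP in MOPS pH 7.5/Mg acetate buffer; 40 min at 30 °C, stopped with phosphoric acid, counted by scintillation. Reported as percent inhibition at 2 μM, with IC50 (μM) where determined.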

c-Src kinase (human) = molecular target: T3, c-Src kinase (human) (Homo sapiens, UniProt P12931); assay: c-Src Kinase Assay; settings: test concentration of 2 μM; multiple values are separate assay results
T3 construct: purchased Upstate Biotechnology, Lake Placid, N.Y
Outline: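 Inhibition was read as 33P incorporation, counted on P30 filtermats, after a 40 min, 30° C reaction. Human c-Src acted on 100 μM Cdc2 peptide with 5 μM ATP (final), pH 7.0 MOPS/MgCl2. Values are percent inhibition at 2 μM compound, or IC50 where determined.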

HER-2 = molecular target: T4, HER-2 (Homo sapiens, UniProt P04626); assay: HER-2 Kinase Assay; settings: for inhibition at 1 µM: test concentration of 1 μM; for IC50: value in parentheses
T4 construct: His6 with thrombin site (N); purchased Proqinase (Freiburg, Germany)
Outline: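 GST/HIS6-tagged HER-2 aa 679–1255 kinase with biotinylated polyGluTyr (1.5 ng/μL), 1 μM ATP plus γ-33P-ATP, Mg2+/Mn2+, DTT, Hepes pH 7.5; 1 h at 30 °C. Substrate phosphorylation captured on streptavidin scintillation plates after EDTA/PBS washes; values are % inhibition at 1 μM or IC50.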

T1 sequence (P00533 669-1210 limits assumed): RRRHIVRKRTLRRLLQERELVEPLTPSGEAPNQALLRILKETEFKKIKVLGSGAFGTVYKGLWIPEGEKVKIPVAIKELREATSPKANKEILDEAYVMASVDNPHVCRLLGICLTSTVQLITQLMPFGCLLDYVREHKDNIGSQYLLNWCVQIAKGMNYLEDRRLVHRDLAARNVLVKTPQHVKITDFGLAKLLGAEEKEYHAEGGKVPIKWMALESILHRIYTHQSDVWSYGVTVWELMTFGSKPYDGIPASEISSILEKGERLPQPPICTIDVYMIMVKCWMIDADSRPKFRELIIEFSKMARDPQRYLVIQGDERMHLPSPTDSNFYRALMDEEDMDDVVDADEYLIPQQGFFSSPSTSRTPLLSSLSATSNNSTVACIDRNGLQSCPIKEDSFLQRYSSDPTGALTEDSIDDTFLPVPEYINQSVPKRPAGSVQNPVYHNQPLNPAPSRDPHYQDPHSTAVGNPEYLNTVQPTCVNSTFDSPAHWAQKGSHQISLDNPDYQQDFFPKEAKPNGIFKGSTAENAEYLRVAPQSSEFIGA
T4 sequence (P04626 679-1255): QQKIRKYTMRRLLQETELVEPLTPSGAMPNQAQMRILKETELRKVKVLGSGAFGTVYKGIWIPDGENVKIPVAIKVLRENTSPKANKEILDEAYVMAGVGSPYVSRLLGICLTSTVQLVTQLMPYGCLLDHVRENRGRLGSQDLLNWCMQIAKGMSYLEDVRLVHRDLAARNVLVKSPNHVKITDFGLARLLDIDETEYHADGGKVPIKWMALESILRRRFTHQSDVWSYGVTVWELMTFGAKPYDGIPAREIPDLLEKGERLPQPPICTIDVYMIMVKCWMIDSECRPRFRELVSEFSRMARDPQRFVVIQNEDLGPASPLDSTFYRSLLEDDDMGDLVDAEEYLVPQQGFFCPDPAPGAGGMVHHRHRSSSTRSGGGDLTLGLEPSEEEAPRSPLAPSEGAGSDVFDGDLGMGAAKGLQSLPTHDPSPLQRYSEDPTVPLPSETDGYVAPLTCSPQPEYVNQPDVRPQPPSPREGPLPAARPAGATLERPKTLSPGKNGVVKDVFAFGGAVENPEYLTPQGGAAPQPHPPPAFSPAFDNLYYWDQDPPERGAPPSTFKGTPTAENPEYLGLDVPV
T3 sequence (P12931 whole entry): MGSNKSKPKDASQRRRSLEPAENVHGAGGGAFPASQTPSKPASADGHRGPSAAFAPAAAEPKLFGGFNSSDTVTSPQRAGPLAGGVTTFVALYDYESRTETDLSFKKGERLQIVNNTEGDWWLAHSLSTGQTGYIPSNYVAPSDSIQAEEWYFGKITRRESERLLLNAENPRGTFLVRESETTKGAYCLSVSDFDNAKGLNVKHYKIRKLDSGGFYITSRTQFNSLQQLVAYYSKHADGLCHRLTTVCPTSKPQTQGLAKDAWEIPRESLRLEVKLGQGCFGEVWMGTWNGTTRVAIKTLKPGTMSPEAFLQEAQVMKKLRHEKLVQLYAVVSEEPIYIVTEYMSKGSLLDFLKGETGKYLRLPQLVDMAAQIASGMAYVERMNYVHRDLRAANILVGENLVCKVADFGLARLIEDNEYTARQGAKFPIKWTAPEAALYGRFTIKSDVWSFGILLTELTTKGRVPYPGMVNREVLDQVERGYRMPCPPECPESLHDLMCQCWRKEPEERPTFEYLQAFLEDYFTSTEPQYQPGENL
T2 sequence (P07948 whole entry): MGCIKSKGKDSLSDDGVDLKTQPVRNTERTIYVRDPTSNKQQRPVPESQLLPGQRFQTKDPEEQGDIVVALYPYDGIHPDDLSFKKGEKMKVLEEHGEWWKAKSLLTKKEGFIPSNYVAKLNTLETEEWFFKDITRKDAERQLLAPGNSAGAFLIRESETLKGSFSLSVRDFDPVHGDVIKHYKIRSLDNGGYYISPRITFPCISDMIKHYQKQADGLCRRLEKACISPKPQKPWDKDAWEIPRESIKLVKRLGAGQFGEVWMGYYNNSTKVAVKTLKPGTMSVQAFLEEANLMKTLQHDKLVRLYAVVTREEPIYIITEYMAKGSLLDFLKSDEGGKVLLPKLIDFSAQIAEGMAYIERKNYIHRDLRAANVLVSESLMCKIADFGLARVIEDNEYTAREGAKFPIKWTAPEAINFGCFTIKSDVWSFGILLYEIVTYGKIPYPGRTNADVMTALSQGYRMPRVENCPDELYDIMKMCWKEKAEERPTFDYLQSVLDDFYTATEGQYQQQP

| inhibition at 2 µM (EGFR) [%] | inhibition at 2 µM (Lyn kinase (human)) [%] | inhibition at 2 µM (c-Src kinase (human)) [%] | inhibition at 1 µM (HER-2) [%] | IC50 (EGFR) [nM] | IC50 (HER-2) [nM] | SMILES |
| --- | --- | --- | --- | --- | --- | --- |
| 37 | 65 | 45 | 21 |  |  | Cc1cccc(Cl)c1N1C(=O)Nc2c(C(=O)Nc3ccc(CN4CCOCC4)cc3)sc3ncnc1c23 [Cpd 146, 5-(2-chloro-6-methyl-phenyl)-4-oxo-4,5-dihydro-3H-1-thia-3,5,6,8-tetraaza-acenaphthylene-2-carboxylic acid (4-morpholin-4-ylmethyl-phenyl)-amide] |
| 43 | 76 | 61 | 17 |  |  | Cc1cccc(Cl)c1N1C(=O)Nc2c(C(=O)Nc3ccc(CN4CCCCC4)cc3)sc3ncnc1c23 [Cpd 147, 5-(2-chloro-6-methyl-phenyl)-4-oxo-4,5-dihydro-3H-1-thia-3,5,6,8-tetraaza-acenaphthylene-2-carboxylic acid (4-piperidin-1-ylmethyl-phenyl)-amide] |
| 38 | 59 | 53 | 30 |  |  | Cc1cccc(Cl)c1N1C(=O)Nc2c(C(=O)Nc3ccc(C(O)CN4CCOCC4)cc3)sc3ncnc1c23 (centres unmarked) [Cpd 148, 5-(2-chloro-6-methyl-phenyl)-4-oxo-4,5-dihydro-3H-1-thia-3,5,6,8-tetraaza-acenaphthylene-2-carboxylic acid [4-(1-hydroxy-2-morpholin-4-yl-ethyl)-phenyl]-amide] |
|  | 72 | 54 | 53 | 187 | 2540 | O=C(Nc1ccc(CN2CCOCC2)cc1)c1sc2ncnc3c2c1NC(=O)N3c1ccccc1Cl [Cpd 149, 5-(2-chloro-phenyl)-4-oxo-4,5-dihydro-3H-1-thia-3,5,6,8-tetraaza-acenaphthylene-2-carboxylic acid (4-morpholin-4-ylmethyl-phenyl)-amide] |
|  | 77 | 52 | 18 | 170 |  | O=C(Nc1ccc(CN2CCCCC2)cc1)c1sc2ncnc3c2c1NC(=O)N3c1ccccc1Cl [Cpd 150, 5-(2-chloro-phenyl)-4-oxo-4,5-dihydro-3H-1-thia-3,5,6,8-tetraaza-acenaphthylene-2-carboxylic acid (4-piperidin-1-ylmethyl-phenyl)-amide] |
|  | 61 | 53 | 29 | 603 |  | CN1CCN(Cc2ccc(NC(=O)c3sc4ncnc5c4c3NC(=O)N5c3ccccc3Cl)cc2)CC1 [Cpd 151, 5-(2-chloro-phenyl)-4-oxo-4,5-dihydro-3H-1-thia-3,5,6,8-tetraaza-acenaphthylene-2-carboxylic acid [4-(4-methyl-piperazin-1-ylmethyl)-phenyl]-amide] |
|  | 7 | -6 |  | 333 | 3720 | O=C1Nc2csc3ncnc(c23)N1c1ccc2c(ccn2Cc2cccc(F)c2)c1 [Cpd 152, 5-[1-(3-fluoro-benzyl)-1H-indol-5-yl]-3H,5H-1-thia-3,5,6,8-tetraaza-acenaphthylen-4-one] |
|  | -4 | 16 | 70 | 159 | 294 | O=C(Nc1ccc(CN2CCOCC2)cc1)c1sc2ncnc3c2c1NC(=O)N3c1ccc(F)c(Br)c1 [Cpd 153, 5-(3-bromo-4-fluoro-phenyl)-4-oxo-4,5-dihydro-3H-1-thia-3,5,6,8-tetraaza-acenaphthylene-2-carboxylic acid (4-morpholin-4-ylmethyl-phenyl)-amide] |
|  | 7 | 8 | 12 | 592 | > 10000 | O=C(NCCCO)c1sc2ncnc3c2c1NC(=O)N3c1ccc(F)c(Br)c1 [Cpd 154, 5-(3-bromo-4-fluoro-phenyl)-4-oxo-4,5-dihydro-3H-1-thia-3,5,6,8-tetraaza-acenaphthylene-2-carboxylic acid (3-hydroxy-propyl)-amide] |
|  | 41 | 18 | 88 | 28 | 327 | O=C(Nc1ccc(CN2CCCCC2)cc1)c1sc2ncnc3c2c1NC(=O)N3c1ccc(F)c(Br)c1 [Cpd 155, 5-(3-bromo-4-fluoro-phenyl)-4-oxo-4,5-dihydro-3H-1-thia-3,5,6,8-tetraaza-acenaphthylene-2-carboxylic acid (4-piperidin-1-ylmethyl-phenyl)-amide] |
|  | 55 | 26 |  | 18 | 278 | COc1cc(NC(=O)c2sc3ncnc4c3c2NC(=O)N4c2ccc(Cc3ccccc3)cc2)ccc1OCCN1CCCCC1 [Cpd 163, 5-(4-benzyl-phenyl)-4-oxo-4,5-dihydro-3H-1-thia-3,5,6,8-tetraaza-acenaphthylene-2-carboxylic acid [3-methoxy-4-(2-piperidin-1-yl-ethoxy)-phenyl]-amide] |
|  | 35 | 25 |  | 11 | 103 | O=C(Nc1ccc(CN2CCCCC2)cc1)c1sc2ncnc3c2c1NC(=O)N3c1ccc(Cc2ccccc2)cc1 [Cpd 164, 5-(4-benzyl-phenyl)-4-oxo-4,5-dihydro-3H-1-thia-3,5,6,8-tetraaza-acenaphthylene-2-carboxylic acid (4-piperidin-1-ylmethyl-phenyl)-amide] |
|  | 39 | 29 |  | 23 | 157 | O=C(Nc1ccc(CN2CCOCC2)cc1)c1sc2ncnc3c2c1NC(=O)N3c1ccc(Cc2ccccc2)cc1 [Cpd 165, 5-(4-benzyl-phenyl)-4-oxo-4,5-dihydro-3H-1-thia-3,5,6,8-tetraaza-acenaphthylene-2-carboxylic acid (4-morpholin-4-ylmethyl-phenyl)-amide] |
|  | 51 | 22 |  | 21 | 171 | O=C(Nc1ccc(CCN2CCCCC2)cc1)c1sc2ncnc3c2c1NC(=O)N3c1ccc(Oc2ccccc2)cc1 [Cpd 166, 4-oxo-5-(4-phenoxy-phenyl)-4,5-dihydro-3H-1-thia-3,5,6,8-tetraaza-acenaphthylene-2-carboxylic acid [4-(2-piperidin-1-yl-ethyl)-phenyl]-amide] |
|  | 51 | 35 |  | 20 | 129 | COc1cc(NC(=O)c2sc3ncnc4c3c2NC(=O)N4c2ccc(Oc3ccccc3)cc2)ccc1OCCN1CCOCC1 [Cpd 167, 4-oxo-5-(4-phenoxy-phenyl)-4,5-dihydro-3H-1-thia-3,5,6,8-tetraaza-acenaphthylene-2-carboxylic acid [3-methoxy-4-(2-morpholin-4-yl-ethoxy)-phenyl]-amide] |
|  | 28 | -21 |  | 452 | 12200 | O=C(O)c1sc2ncnc3c2c1NC(=O)N3c1ccc(Oc2ccccc2)cc1 [Cpd 168, 4-oxo-5-(4-phenoxy-phenyl)-4,5-dihydro-3H-1-thia-3,5,6,8-tetraaza-acenaphthylene-2-carboxylic acid] |
| 11 | 12 | 4 |  |  | > 100000 | C[C@H](c1ccccc1)N1C(=O)Nc2c(C(=O)O)sc3ncnc1c23 [Cpd 170, 4-oxo-5-[(1R)-1-phenyl-ethyl]-4,5-dihydro-3H-1-thia-3,5,6,8-tetraaza-acenaphthylene-2-carboxylic acid] |
| -3 | -5 | -8 |  |  | > 100000 | C[C@H](c1ccccc1)N1C(=O)Nc2c(C(=O)NC3CCN(C)CC3)sc3ncnc1c23 [Cpd 173, 4-oxo-5-[(1R)-1-phenyl-ethyl]-4,5-dihydro-3H-1-thia-3,5,6,8-tetraaza-acenaphthylene-2-carboxylic acid (1-methyl-piperidin-4-yl)-amide] |
|  | 0 | -1 |  | 130 | 515 | O=C(Nc1ccc(CN2CCOCC2)cc1)c1sc2ncnc3c2c1NC(=O)N3c1ccc2c(cnn2Cc2cccc(F)c2)c1 [Cpd 175, 5-[1-(3-fluoro-benzyl)-1H-indazol-5-yl]-4-oxo-4,5-dihydro-3H-1-thia-3,5,6,8-tetraaza-acenaphthylene-2-carboxylic acid (4-morpholin-4-ylmethyl-phenyl)-amide] |
